Among the data in US20080269237A1, “CARBAMIC ACID COMPOUNDS COMPRISING A PIPERAZINE LINKAGE AS HDAC INHIBITORS” (TOPOTARGET UK LIMITED, priority 2002, published 2008) are melting point values, retold here.

Structures can show the parent of a compound that is named as a salt.

By melting point is commonly meant the temperature, or range, at which the solid turns liquid. Regarding `COc1ccc2[nH]cc(CCN3CCN(C(=O)CCCCCCC(=O)NO)CC3)c2c1.O=C(O)C(=O)O`, the melting point lay in the range of 122 to 125 °C.

With `O=C(CCCCCC(=O)N1CCN(c2ccccn2)CC1)NO` (as salt: oxalate) [PX118845, 7-Oxo-7-(4-pyridin-2-yl-piperazin-1-yl]-heptanoic acid hydroxyamide oxalate], the melting point lay in the range of 118 to 122 °C.

Compound `O=C(CCCCCCC(=O)N1CCN(c2ccccc2)CC1)NO` [PX117402, 8-Oxo-8-(4-phenyl-piperazin-1-yl)-octanoic acid hydroxyamide] registered a melting point of 134 to 136 °C.

Consider `O=C(CCCCCCC(=O)N1CCN(c2cccc(F)c2)CC1)NO` [PX118859, 8-[4-(3-Fluorophenyl)-piperazin-1-yl]-8-oxooctanoic acid hydroxyamide], for which the melting point lay in the range of 149 to 150.5 °C.

The compound `O=C(CCCCCCC(=O)N1CCN(c2cccc(C(F)(F)F)c2)CC1)NO` [PX118860, 8-Oxo-8-[4-(3-trifluoromethylphenyl)-piperazin-1-yl]-octanoic acid hydroxyamide] yielded a melting point of 126 to 128 °C.

In the case of `O=C(/C=C/c1cccc(S(=O)(=O)N2CCN(C/C=C/c3ccccc3)CC2)c1)NO` [PX118870, (E)-N-Hydroxy-3-[3-({4-[(E)-3-phenyl-2-propenyl]-1-piperazinyl}sulfonyl)phenyl]-2-propenamide], the melting point is 178 °C.

The compound `COc1cccc(N2CCN(S(=O)(=O)c3cccc(/C=C/C(=O)NO)c3)CC2)c1` [PX118872, (E)-N-hydroxy-3-(3-{[4(3-methoxyphenyl)piperazinyl]sulfonyl}phenyl)-2-propenamide] registered a melting point of 196 °C.

Regarding `O=C(/C=C/c1cccc(S(=O)(=O)N2CCN(Cc3ccc4c(c3)OCO4)CC2)c1)NO` [PX118873, (E)-3-(3-{[4-(1,3-Benzodioxol-5-ylmethyl)-1-piperazinyl]sulfonyl}-phenyl)-N-hydroxy-2-propenamide], the melting point was found to be 172 °C.

Compound `O=C(/C=C/c1cccc(S(=O)(=O)N2CCN(Cc3ccccc3)CC2)c1)NO` [PX118874, (E)-3-{3-[(4-Benzyl-1-piperazinyl)sulfonyl]phenyl}-N-hydroxy-2-propenamide] registered a melting point of 185 °C.

`O=C(/C=C/c1cccc(S(=O)(=O)N2CCN(c3ccccc3F)CC2)c1)NO` [PX118877, (E)-3-(3-{[4-(2-Fluorophenyl)-1-piperazinyl]sulfonyl}phenyl)-N-hydroxy-2-propenamide] came in with a melting point of 176 °C.

The compound `O=C(/C=C/c1cccc(S(=O)(=O)N2CCN(c3cccc(C(F)(F)F)c3)CC2)c1)NO` [PX118878, (E)-N-Hydroxy-3-[3-({4-[3-(trifluoromethyl)phenyl]-1-piperazinyl}sulfonyl)phenyl]-2-propenamide] registered a melting point of 173 °C.

Regarding `O=C(/C=C/c1ccc(S(=O)(=O)N2CCN(c3ccccc3F)CC2)cc1)NO` [PX118891, (E)-3-(4-{[4-(2-Fluorophenyl)-1-piperazinyl]sulfonyl}phenyl)-N-hydroxy-2-propenamide], the melting point was in the range of 196 to 197 °C.

Take `COc1cccc(N2CCN(S(=O)(=O)c3ccc(/C=C/C(=O)NO)cc3)CC2)c1` [PX118892, (E)-N-Hydroxy-3-(4-{[4-(3-methoxyphenyl)-1-piperazinyl]sulfonyl}phenyl)-2-propenamide]: the melting point lay within 199 to 200 °C.

For `O=C(/C=C/c1cccc(S(=O)(=O)N2CCN(c3ncccn3)CC2)c1)NO` [PX118894, (E)-N-Hydroxy-3-(3{-[4-(2-pyrimidinyl)-1-piperazinyl]sulfonyl}-phenyl)-2-propenamide], the melting point came out at 200 °C.

Compound `Cc1cccc(N2CCN(C(=O)CCCCCCC(=O)NO)CC2C)c1` (stereo not drawn) [PX118899, 8-(3-Methyl-4-m-tolyl-piperazin-1-yl)-8-oxo octanoic acid hydroxyamide] returned a melting point of 75 to 76 °C.

With `C/C(=N\O)c1ccc(N2CCN(C(=O)CCCCCCC(=O)NO)CC2)cc1` [PX118903, 8-{4-[4-(1-Hydroxyimino-ethyl)-phenyl]-piperazin-1-yl}-8-oxo octanoic acid hydroxyamide], the melting point lay within 147 to 147.5 °C.

The compound `O=C(CCCCCCC(=O)N1CCN(CCc2ccc3ccccc3c2)CC1)NO` [PX118908, 8-[4-(2-Naphthalen-2-yl-ethyl)-piperazin-1-yl]-8-oxo octanoic acid hydroxyamide] had a melting point of 118 to 120 °C.

As for `O=C(CCCCCCC(=O)N1CCN(CC(c2ccccc2)c2ccccc2)CC1)NO` [PX118909, 8-[4-(2,2-Diphenyl-ethyl)-piperazin-1-yl]-8-oxo octanoic acid hydroxyamide], the melting point is 117 to 118 °C.

In the case of `O=C(/C=C/c1cccc(S(=O)(=O)N2CCN(CC(c3ccccc3)c3ccccc3)CC2)c1)NO` [PX118913, (E)-3-(3-{[4-(2,2-Diphenylethyl)-1-piperazinyl]sulfonyl}phenyl)-N-hydroxy-2-propenamide], the melting point is 117 °C (dec.).

In the case of `O=C(/C=C/c1cccc(S(=O)(=O)N2CCN(CCc3ccc4ccccc4c3)CC2)c1)NO` [PX118914, (E)-N-Hydroxy-3-[3-({4-[2-(2naphthyl)ethyl]-1-piperazinyl}sulfonyl)phenyl]-2-propenamide], the melting point came to 184 °C.

With `O=C(/C=C/c1ccc(S(=O)(=O)N2CCN(c3ccc([N+](=O)[O-])cc3)CC2)cc1)NO` [PX118918, (E)-N-Hydroxy-3-(4-{[4-(4-nitrophenyl)-1-piperazinyl]sulfonyl}phenyl)-2-propenamide], the melting point fell in the range of 199 to 200 °C.

Compound `CN(C)c1ccc(CCN2CCN(C(=O)CCCCCCC(=O)NO)CC2)cc1` [PX118928, 8-{4-[4-(Dimethylamino)phenethyl]-1-piperazinyl}-N-hydroxy-8-oxooctanamide] returned a melting point of 103 to 105 °C.

For `O=C(CCCCCCC(=O)N1CCN(C(=O)COc2ccc3ccccc3c2)CC1)NO` [PX118929, N-Hydroxy-8-{4-[2-(2-naphthyloxy)acetyl]-1-piperazinyl}-8-oxooctanamide], the melting point lay in the range of 139 to 140.5 °C.

With `C=C(Cl)c1ccc(N2CCN(S(=O)(=O)c3cccc(/C=C/C(=O)NO)c3)CC2)cc1` [PX118933, (E)-3-[3-({4-[4-(1-Chlorovinyl)phenyl]-1-piperazinyl}sulfonyl)phenyl]-N-hydroxy-2-propenamide], the melting point is 203 °C (dec.).

Regarding `O=C(/C=C/c1cccc(S(=O)(=O)N2CCN(CCOc3cccc4ccccc34)CC2)c1)NO` [PX118934, (E)-N-Hydroxy-3-[3-({4-[2-(1-naphthyloxy)ethyl]-1-piperazinyl}-sulfonyl)phenyl]-2-propenamide], the melting point was 178 °C.

In turn, `O=C(/C=C/c1cccc(S(=O)(=O)N2CCN(CCOc3ccc4ccccc4c3)CC2)c1)NO` [PX118935, (E)-N-Hydroxy-3-[3-({4-[2-(2-naphthyloxy)ethyl]-1-piperazinyl}-sulfonyl)phenyl]-2-propenamide] came in with a melting point of 130 °C.

The compound `O=C(/C=C/c1ccc(S(=O)(=O)N2CCN(c3cccc(C(F)(F)F)c3)CC2)cc1)NO` [PX118937, (E)-N-Hydroxy-3-[4-({4-[3-(trifluoromethyl)phenyl]-1-piperazinyl}-sulfonyl)phenyl]-2-propenamide] showed a melting point of 178 to 179 °C.
